Laboratory results as given in US20200378950A1, “Glycosylation site-specific antibodies and anti-cancer compounds” (Detroit R & D, Inc., priority 2019, published 2020).

How the values were obtained:
[1] = system: O-GlcNAcylated p53 in MCF-7 cells; assay: Western blot of O-GlcNAcylated p53 levels in treated MCF-7 cells; format: cell-based; settings: MCF-7, 24 hr, 2 mM, cytosol-containing supernatants
Method: MCF-7 cells were grown in MEM/EBSS media (Hyclone, Logan, Utah) supplemented with 10% fetal bovine serum and 0.01 mg/mL insulin. […] The glucose concentration of MEM/EBSS and DMEM/F12 media are 6 mM and 18 mM, respectively. Cells were maintained in humidified atmosphere with 95% air and 5% CO2 at 37° C.
MCF-7 cells were grown for 24 hr with treatment of 1% DMSO (negative control) or 2 mM STZ or acetazolamide dissolved in DMSO or 2 mM N^6-methyladenosine 5′-monophosphate dissolved in media. The cells were harvested and cytosol-containing supernatants were obtained.

[2] = system: O-GlcNAcylated c-myc in MCF-7 cells; assay: Western blot of O-GlcNAcylated c-myc levels in treated MCF-7 cells; format: cell-based; settings: MCF-7, 24 hr treatment, 2 mM, nuclear lysates
Method: MCF-7 cells were grown in MEM/EBSS media (Hyclone, Logan, Utah) supplemented with 10% fetal bovine serum and 0.01 mg/mL insulin. MCF-10A cells were grown in DMEM/F12 media (Hyclone) supplemented with 5% horse serum, […], […], 20 ng/mL EGF, […], 100 units/mL penicillin-streptomycin and 2 mM glutamine. The glucose concentration of MEM/EBSS and DMEM/F12 media are 6 mM and 18 mM, respectively. Cells were maintained in humidified atmosphere with 95% air and 5% CO2 at 37° C.
MCF-7 breast cancer cells were treated for 24 hr with 1% DMSO, with an O-GlcNAcase inhibitor, streptozotocin (STZ), with N^6-methyladenosine 5′-monophosphate [an O-GlcNAcase inhibitor discovered through by screening with the pseudofluorescent substrate 4-methylumbelliferol (4-MU)-GlcNAc (7)] or with media (control) (FIG. 5).
O-GlcNAcase inhibitors, which increased O-GlcNAcylation levels of proteins by preventing cleavage of an O-GlcNAc moiety of Ser or Thr residues, were identified using the antibodies of the present invention. […]
MCF-7 cells were treated for 4 hr with 1% DMSO (negative control) or 2 mM ketoconazole in DMSO and an O-GlcNAcylated c-myc band was detected using a second antibody for O-GlcNAcylated c-myc (Peptide #1-G).

MCF-7 and MCF10A cells = assay: Lactate dehydrogenase (LDH) cytotoxicity assay, MCF-7 compared with MCF10A; format: cell-based; settings: 2 mM, 4 hr
Method: Increased O-GlcNAcylated c-myc levels in MCF-7 cells induced cell death. MCF-7 tumor cell death after 2 mM ketoconazole treatment was compared with MCF10A normal cell death by LDH cytotoxicity assay. After treatment of cells for 4 hr, extracellular media and Triton X-100 solubilized cells were obtained and oxidation of NADH to NAD+ in both fractions was monitored for 2 min at a 340 nm to obtain total (media+cells) LDH release.

[3] = system: PANC1 pancreatic cancer cells; assay: Wound healing (cell migration) assay, PANC1; format: cell-based; settings: PANC1, 100 μM
Method: (§1) Wound healing assays were also carried out to verify inhibition of cell migration after ketoconazole treatment.
(§2) Wound healing assays to measure inhibition of cell migration toward scratched area with and without treatment of 100 μM ketoconazole dissolved in DMSO (final concentration, 1%). Percent of cells migrated toward a scratched field are shown. […] Percent of cells migrated toward a scratched field are shown.

[4] = system: MCF10CA1A breast cancer cells; assay: QCM ECMatrix cell invasion assay, MCF10CA1A; format: cell-based; settings: MCF-10CA1A, 100 μM for 72 hr
Method: Cell invasiveness of SW480 and HT29 human colon adenocarcinoma cells and MCF10CA1A breast cancer cells with and without 72 hr treatment with 100 μM ketoconazole was studied in 24-well plates using the QCM ECMatrix cell invasion assay kit (EMD Millipore).

[5] = system: MCF-7 breast cancer cells; assay: Cell proliferation, MCF-7; format: cell-based
Method: Cell proliferation assays were carried out after seeding 3,000-5,000 cells in a 96-well plate with and without treatment of 50 μM ketoconazole dissolved in DMSO (final concentration, 1%) for 72 hr (FIG. 8, Panel A). The cell number was counted after staining the cells with 3-(4,5-dimethylthiazol-2-yl)2,5-diphenyl-tetrazolium bromide (MTT).

SW480 colon cancer cells = assay: Wound healing (cell migration) assay, SW480; format: cell-based, human; settings: SW480, 100 μM
Method: as §2

[6] = system: Mia Paca-2 pancreatic cancer cells; assay: Wound healing (cell migration) assay, Mia Paca-2; format: cell-based; settings: Mia Paca-2, 100 μM
Method: as §1, §2

HT29 colon cancer cells = assay: Wound healing (cell migration) assay, HT29; format: cell-based, human; settings: HT29, 100 μM
Method: as §2

[7] = system: unmodified c-myc in MCF-7 cells; assay: Western blot of unmodified c-myc protein in treated MCF-7 cells; format: cell-based; settings: MCF-7, 4 hr, 2 mM, Peptide #2-N antibody
Method: Western blot analysis was carried out with 10% gel electrophoresis using nuclear lysates obtained from MCF-7 cells with antibodies for O-GlcNAcylated c-myc (Peptide #2-G). […] There was no increase in unmodified c-myc protein after ketoconazole treatment as verified with antibodies for unmodified c-myc (Peptide #2-N) by Western blot analysis.

| Compound | Levels of O-GlcNAcylated p53 [1] | O-GlcNAcylated c-myc levels [2] | cell death in MCF-7 cells higher than in MCF10A cells (LDH release) (MCF-7 and MCF10A cells) [%] | % cells migrated ([3]; 0 hr) [%] | % cells migrated ([3]; 24 hr) [%] | % cells migrated ([3]; 48 hr) [%] | inhibition of cell migration ([3]; wound healing) | inhibition of migration in cell invasion assay [4] | inhibition of cell proliferation [5] | Percent of cells migrated (SW480 colon cancer cells; 0 hr) | inhibition of cell migration (SW480 colon cancer cells; 24 hours) | Percent of cells migrated (SW480 colon cancer cells; 24 hr) | % cells migrated ([6]; 0 hr) [%] | % cells migrated ([6]; 24 hr) [%] | % cells migrated ([6]; 24 hr, listed as Ketoconazole) [%] | % cells migrated ([6]; 48 hr) [%] | Percent of cells migrated (HT29 colon cancer cells; 0 hr) | inhibition of cell migration (HT29 colon cancer cells; 24 hours) | Percent of cells migrated (HT29 colon cancer cells; 24 hr) | unmodified c-myc protein level [7] |
| --- | --- | --- | --- | --- | --- | --- | --- | --- | --- | --- | --- | --- | --- | --- | --- | --- | --- | --- | --- | --- |
| CC(=O)Nc1nnc(S(N)(=O)=O)s1 [acetazolamide] | potent inducer | did not increase | – | – | – | – | – | – | – | – | – | – | – | – | – | – | – | – | – | – |
| CC(=O)N1CCN(c2ccc(OCC3COC(Cn4ccnc4)(c4ccc(Cl)cc4Cl)O3)cc2)CC1 (centres unmarked) [ketoconazole] | – | – | 84 | 0 | 6 | 11 | failed to inhibit | partially inhibited | inhibited the proliferation | 0 | slightly inhibited | 27 | 0 | 11.6 | 10 | 12 | 0 | slightly inhibited | 8 | no increase |
